Measured values: patent US20180099931A1 (AbbVie S.à.r.l., priority 2016, published 2018)
Like-named read-outs stand apart in the source and are kept apart here.

Target: T1, F508delCFTR (Homo sapiens, UniProt P13569, DEL508-508)
T1 construct: expressed in transfected cells; host or cells: CFBE41o- human lung-derived epithelial cells (CFBE4lo-F508delCFTR-HRP), doxycycline-inducible
Assay: Cell Surface Expression-Horse Radish Peroxidase (CSE-HRP) Assay;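 as to Maximum % activity (with co-corrector): co-corrector and positive control are both the same reference corrector at 2 µM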;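 as to Maximum % activity (without co-corrector): percent of the 2 µM on-plate positive control corrector response above DMSO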
Format: cell-based
Settings: for Emax: read-out: Maximum % activity (without co-corrector)

[1] = test compound without co-corrector, read-out: EC50 (without co-corrector)
[2] = with co-corrector (2 μM of 3-[(2R,4R)-4-({[1-(2,2-difluoro-1,3-benzodioxol-5-yl)cyclopropyl]carbonyl}amino)-7-methoxy-3,4-dihydro-2H-chromen-2-yl]benzoic acid), read-out: EC50 (with co-corrector)
[3] = with co-corrector (2 μM), maximum at any tested concentration, normalized to on-plate positive control
[4] = without co-corrector, maximum at any tested concentration, normalized to on-plate positive control
[5] = test compound without co-corrector, maximum at any tested concentration, normalized to on-plate positive control
[6] = with co-corrector (2 μM of 3-[(2R,4R)-4-({[1-(2,2-difluoro-1,3-benzodioxol-5-yl)cyclopropyl]carbonyl}amino)-7-methoxy-3,4-dihydro-2H-chromen-2-yl]benzoic acid), maximum at any tested concentration, normalized to on-plate positive control
[7] = CSE-HRP, test compound without co-corrector, read-out: EC50 (without co-corrector)
[8] = CSE-HRP, with co-corrector (2 μM of 3-[(2R,4R)-4-({[1-(2,2-difluoro-1,3-benzodioxol-5-yl)cyclopropyl]carbonyl}amino)-7-methoxy-3,4-dihydro-2H-chromen-2-yl]benzoic acid), read-out: EC50 (with co-corrector)
[9] = CSE-HRP, with co-corrector (2 μM), maximum at any tested concentration, normalized to on-plate positive control
[10] = CSE-HRP, without co-corrector, maximum at any tested concentration, normalized to on-plate positive control

T1 sequence (P13569 with tags, fused parts or gaps DEL508-508): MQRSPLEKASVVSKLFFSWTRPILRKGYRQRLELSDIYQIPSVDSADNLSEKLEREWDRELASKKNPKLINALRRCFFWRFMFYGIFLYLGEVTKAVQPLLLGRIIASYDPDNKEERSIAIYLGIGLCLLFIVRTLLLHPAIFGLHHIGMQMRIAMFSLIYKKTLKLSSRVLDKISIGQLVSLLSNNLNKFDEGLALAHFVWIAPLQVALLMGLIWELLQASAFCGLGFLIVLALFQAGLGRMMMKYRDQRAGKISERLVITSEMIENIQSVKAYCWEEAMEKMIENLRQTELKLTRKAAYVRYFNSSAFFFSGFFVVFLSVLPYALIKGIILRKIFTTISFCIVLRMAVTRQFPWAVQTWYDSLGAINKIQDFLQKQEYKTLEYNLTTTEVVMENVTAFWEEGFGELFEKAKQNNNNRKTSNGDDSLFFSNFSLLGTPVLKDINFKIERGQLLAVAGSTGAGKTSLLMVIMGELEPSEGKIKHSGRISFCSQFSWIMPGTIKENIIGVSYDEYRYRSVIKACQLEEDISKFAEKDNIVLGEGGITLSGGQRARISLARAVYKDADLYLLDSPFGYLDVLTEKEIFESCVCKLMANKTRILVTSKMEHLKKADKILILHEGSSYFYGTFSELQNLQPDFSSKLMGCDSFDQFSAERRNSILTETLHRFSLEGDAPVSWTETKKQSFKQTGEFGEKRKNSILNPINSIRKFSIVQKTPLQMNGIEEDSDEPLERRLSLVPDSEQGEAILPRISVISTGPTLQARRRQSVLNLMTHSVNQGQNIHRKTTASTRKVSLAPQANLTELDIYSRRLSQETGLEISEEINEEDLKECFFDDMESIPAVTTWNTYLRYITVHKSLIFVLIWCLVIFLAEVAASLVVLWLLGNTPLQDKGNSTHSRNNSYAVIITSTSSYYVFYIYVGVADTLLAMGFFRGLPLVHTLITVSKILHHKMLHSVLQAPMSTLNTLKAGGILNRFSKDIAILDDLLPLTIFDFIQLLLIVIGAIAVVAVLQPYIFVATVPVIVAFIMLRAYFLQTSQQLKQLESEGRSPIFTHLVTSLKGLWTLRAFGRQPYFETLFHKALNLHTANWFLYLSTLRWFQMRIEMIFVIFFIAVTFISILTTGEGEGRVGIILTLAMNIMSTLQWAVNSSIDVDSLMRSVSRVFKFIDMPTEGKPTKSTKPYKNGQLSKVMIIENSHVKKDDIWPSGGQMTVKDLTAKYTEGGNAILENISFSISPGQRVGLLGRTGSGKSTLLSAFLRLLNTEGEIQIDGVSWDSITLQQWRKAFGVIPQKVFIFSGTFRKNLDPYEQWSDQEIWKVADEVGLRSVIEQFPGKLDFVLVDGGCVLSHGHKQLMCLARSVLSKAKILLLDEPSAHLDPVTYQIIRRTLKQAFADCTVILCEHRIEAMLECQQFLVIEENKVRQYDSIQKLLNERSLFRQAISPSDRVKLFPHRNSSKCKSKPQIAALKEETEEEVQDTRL

| EC50 [1] | EC50 [2] | Maximum % activity (with co-corrector) [3] | Emax [5] | Maximum % activity (with co-corrector) [6] | SMILES | also measured |
| --- | --- | --- | --- | --- | --- | --- |
| 1 to 10 µM | < 1 µM | +++ (≥350) |  |  | COc1ccc(C23CC(C2)C3)cc1CN[C@H]1[C@H](C(C)(C)C)[C@@H](C(=O)O)N(C(=O)[C@@H]2CCCCO2)[C@H]1c1cccnc1N(C)C [Example 51, (2S,3S,4S,5S)-4-({[5-(bicyclo[1.1.1]pentan-1-yl)-2-methoxyphenyl]methyl}amino)-3-tert-butyl-5-[2-(dimethylamino)pyridin-3-yl]-1-[(2S)-oxane-2-carbonyl]pyrrolidine-2-carboxylic acid] | Emax [4]: > 200% |
| 1 to 10 µM | 1 to 10 µM |  | 100 to 200% | +++ (≥350) | COc1ccc(C(C)(C)C)cc1CN[C@H]1[C@H](C(C)(C)C)[C@@H](C(=O)O)N(C(=O)C2CCC(O)(C(F)(F)F)CC2)[C@H]1c1cccnc1N(C)C (stereo partly shown) [II-463] |  |
| < 1 µM | < 1 µM | +++ (≥350) | 100 to 200% |  | COc1ncc(C(F)(F)F)cc1CN[C@H]1[C@H](C(C)(C)C)[C@@H](C(=O)O)N(C(=O)C2CC(C)CC(C)C2)[C@H]1c1ccccc1 (stereo partly shown) [III-201] |  |
| 1 to 10 µM | 1 to 10 µM |  | > 200% | +++ (≥350) | COc1ccc(C(C)(C)C)cc1CN[C@H]1[C@H](C(C)(C)C)[C@@H](C(=O)O)N(C(=O)C2CC2)[C@H]1c1ccccc1 [II-333] |  |
| 1 to 10 µM | 1 to 10 µM |  | 100 to 200% | +++ (≥350) | COCC1(c2ccc(OC)c(CN[C@H]3[C@H](C(C)(C)C)[C@@H](C(=O)O)N(C(=O)C4CCCCC4)[C@H]3c3ccccc3)c2)CC1 [II-420] |  |
| 1 to 10 µM | 1 to 10 µM |  | 100 to 200% | +++ (≥350) | COc1ncc(C2CCC2)cc1CN[C@H]1[C@H](C(C)(C)C)[C@@H](C(=O)O)N(C(=O)[C@@H]2CCCO2)[C@H]1c1cccnc1C1CC1 [II-588] |  |
| 1 to 10 µM | 1 to 10 µM |  | < 100% | ++ (≥150 and <350) | COc1ccc2c(c1)[C@](C)(C(=O)N1[C@H](C(=O)O)[C@@H](C(C)(C)C)[C@H](NCc3cc(C(C)(C)C)ccc3OC)[C@@H]1c1cccnc1OC)CC2 [II-570] |  |
| 1 to 10 µM | 1 to 10 µM |  | 100 to 200% | +++ (≥350) | COC1(CN[C@H]2[C@H](C(C)(C)C)[C@@H](C(=O)O)N(C(=O)C3CCCCC3)[C@H]2c2ccccc2)CCCCC1 [II-394] |  |
| > 10 µM | 1 to 10 µM | ++ (≥150 and <350) | < 100% |  | COc1ccc(C(F)(F)F)cc1CN[C@@H]1[C@@H](C(C)(C)C)[C@H](C(=O)O)N(C(=O)[C@](OC)(c2ccccc2)C(F)(F)F)[C@@H]1c1ccccc1 [III-102] |  |
| 1 to 10 µM | 1 to 10 µM | +++ (≥350) |  |  | COc1ccc(C(C)(C)C)cc1CN[C@H]1[C@H](C(C)(C)C)[C@@H](C(=O)O)N(C(=O)CC2(O)CCCC2)[C@H]1c1ccccc1 [Example I-99] | Emax [4]: > 200% |
| 1 to 10 µM | < 1 µM |  | > 200% | +++ (≥350) | COc1ccc(C(C)(C)C)cc1CN[C@H]1[C@H](C(C)(C)C)[C@@H](C(=O)O)N(C(=O)C2CCc3cc(F)ccc3O2)[C@H]1c1ccccc1 (stereo partly shown) [II-320] |  |
| > 10 µM | < 1 µM |  | < 100% | ++ (≥150 and <350) | Cc1cc(C(F)(F)F)cc(N[C@@H]2[C@@H](C(C)(C)C)[C@H](C(=O)NS(=O)(=O)C3CC3)N(C(=O)C3CCCCC3)[C@@H]2c2ccccc2)n1 (racemic) [III-52] |  |
|  |  |  |  |  | COc1ccc(C(F)(F)F)cc1CN[C@@H]1[C@@H](C(C)(C)C)[C@H](C(=O)O)N(C(=O)C2CCC3(CC2)CC3)[C@@H]1c1ccccc1 (racemic) [II-70] | EC50 [7]: 1 to 10 µM; EC50 [8]: 1 to 10 µM; Maximum % activity (with co-corrector) [9]: ++ (≥150 and <350); Emax [10]: < 100% |
| 1 to 10 µM | < 1 µM | +++ (≥350) |  |  | COc1ncc(C2CCC2)cc1CN[C@H]1[C@H](C(C)(C)OC)[C@@H](C(=O)O)N(C(=O)C2CCCCC2)[C@H]1c1ccccc1 [Example I-115] | Emax [4]: > 200% |
| 1 to 10 µM | < 1 µM | +++ (≥350) | 100 to 200% |  | COc1nc(C(C)(C)C)ccc1CN[C@H]1[C@H](C(C)(C)C)[C@@H](C(=O)O)N(C(=O)OC(C)C)[C@H]1c1cccnc1N(C)C [III-219] |  |
| 1 to 10 µM | 1 to 10 µM | +++ (≥350) |  |  | COc1ccc(C(C)(C)C)cc1CN[C@H]1[C@H](C(C)(C)C)[C@@H](C(=O)O)N(C(=O)C2CCCS(=O)(=O)C2)[C@H]1c1ccccc1 (stereo partly shown) [Example I-66] | Emax [4]: > 200% |
| 1 to 10 µM | 1 to 10 µM |  | > 200% | +++ (≥350) | COc1ccc(C(C)(C)C)cc1CN[C@H]1[C@H](C(C)(C)C)[C@@H](C(=O)O)N(C(=O)C2CCO2)[C@H]1c1ccccc1 (stereo partly shown) [II-443] |  |
| < 1 µM | < 1 µM | +++ (≥350) | > 200% |  | COc1ccc(C23CC(C2)C3)cc1CN[C@H]1[C@H](C(C)(C)C)[C@@H](C(=O)O)N(C(=O)C2CCCCC2)[C@H]1c1ccccc1 [III-202] |  |
| 1 to 10 µM | 1 to 10 µM | +++ (≥350) |  |  | COC(C)(C)[C@@H]1[C@@H](Nc2cc(C(F)(F)F)cc(C)n2)[C@@H](c2ccccc2)N(C(=O)C2CCCCC2)[C@H]1C(=O)O (racemic) [Example 5, rac-(2R,3R,4R,5R)-1-(cyclohexanecarbonyl)-3-(2-methoxypropan-2-yl)-4-{[6-methyl-4-(trifluoromethyl)pyridin-2-yl]amino}-5-phenylpyrrolidine-2-carboxylic acid] | Emax [4]: < 100% |
| 1 to 10 µM | < 1 µM |  | > 200% | +++ (≥350) | COc1ccc(-c2ccccc2)cc1CN[C@H]1[C@H](C(C)(C)C)[C@@H](C(=O)O)N(C(=O)[C@@H]2CCCCO2)[C@H]1c1cccnc1N(C)C [II-450] |  |
| < 1 µM | < 1 µM |  |  |  | COc1ccc(C2(C(F)(F)F)CC2)cc1CN[C@H]1[C@H](C(C)(C)C)[C@@H](C(=O)O)N(C(=O)C2Cc3ccccc3O2)[C@H]1c1cccnc1N(C)C (single isomer, unassigned) [Example 37, (2S,3S,4S,5S)-3-tert-butyl-1-[(2R*)-2,3-dihydro-1-benzofuran-2-carbonyl]-5-[2-(dimethylamino)pyridin-3-yl]-4-[({2-methoxy-5-[1-(trifluoromethyl)cyclopropyl]phenyl}methyl)amino]pyrrolidine-2-carboxylic acid] | Maximum % activity (with co-corrector) (with co-corrector (2 μM), maximum at any tested concentration, normalized to on-plate positive control, 2 µM): ++ (≥150 and <350); Maximum % activity (without co-corrector) [4]: + (<100) |
| 1 to 10 µM | 1 to 10 µM | +++ (≥350) |  |  | CC(C)(C)[C@@H]1[C@@H](Nc2cccc(OC(F)F)n2)[C@@H](c2ccccc2)N(C(=O)C2CCCCC2)[C@H]1C(=O)O (racemic) [Example I-21] | Emax [4]: < 100% |
| 1 to 10 µM | 1 to 10 µM |  | 100 to 200% | +++ (≥350) | COc1ncc(C(F)(F)F)cc1CN[C@@H]1[C@@H](C(C)(C)C)[C@H](C(=O)O)N(C(=O)C2CCCCC2)[C@@H]1c1ccccc1 (racemic) [III-81] |  |
| < 1 µM | < 1 µM |  | > 200% | +++ (≥350) | COc1ccc(C23CC(C2)C3)cc1CN[C@H]1[C@H](C(C)(C)C)[C@@H](C(=O)O)N(C(=O)[C@H]2CCCC(F)(F)C2)[C@H]1c1ccccc1 [II-509] |  |
| 1 to 10 µM | 1 to 10 µM | +++ (≥350) | > 200% |  | COc1ncc(C2CCC2)cc1CN[C@H]1[C@H](C(C)(C)C)[C@@H](C(=O)O)N(C(=O)OC(C)C)[C@H]1c1cccnc1N(C)C [III-224] |  |
| 1 to 10 µM | < 1 µM |  | > 200% | +++ (≥350) | COc1cc(C(F)(F)F)ccc1CN[C@H]1[C@H](C(C)(C)C)[C@@H](C(=O)O)N(C(=O)OC(C)C)[C@H]1c1ccccc1C(C)C [II-561] |  |
|  |  |  |  |  | COc1ccc(CN[C@H]2[C@H](C(C)(C)C)[C@@H](C(=O)O)N(C(=O)C3CCCCC3)[C@H]2c2ccccc2)cc1C(F)(F)F [II-127] | EC50 [7]: 1 to 10 µM; EC50 [8]: 1 to 10 µM; Maximum % activity (with co-corrector) [9]: ++ (≥150 and <350); Emax [10]: < 100% |
| > 10 µM | 1 to 10 µM |  | < 100% | ++ (≥150 and <350) | CC(C)(C)[C@@H]1[C@@H](NCc2ccc(Cl)cc2Cl)[C@@H](c2ccccc2)N(C(=O)CC2CCCC2)[C@H]1C(=O)O (racemic) [III-3] |  |
